Test results as given in patent US20220288052A1, “COMPOUND FOR COMBINATION TREATMENT” (priority 2019, published 2022).

How the values were obtained:
[1] = system: NMRI mice; assay: Locomotor activity (mLA); type: in vivo, mouse; conditions: mLA; for MED: p.o. 0 min
Method: FIG. 8: The effects of compound (I) on locomotor activity. Compound (I) p.o. in NMRI mice. TSE Motility.
(§1) Compound (I) was tested in a classical test often used to measure the ability of a compound to block the reuptake of 5-HT in vivo: nialamide-induced 5-HT syndrome (m5-HT). In addition, compound (I) was tested in a locomotor activity paradigm (mLA) as a measure of its ability to block the reuptake of DA and therefore induce motility. It is generally accepted that >60% DA transporter blockade is needed to induce increased motility in this test.

[2] = system: nialamide pre-treated mice; assay: Nialamide-induced 5-HT syndrome (m5-HT); type: in vivo, mouse; conditions: m5-HT, p.o. 0 min
Method: 50 mg/kg nialamide s.c. t=120 min. Compound (I) p.o. t=0. n=4.
as §1

[3] = system: NMRI mice; assay: Mouse forced swim test (mFST); type: in vivo; conditions: mFST (NMRI), p.o. 60 min
Method: Compound (I) was tested in two of the most widely used behavioural screens for predicting antidepressant effects in the clinic: the mouse forced swim test (mFST) and mouse tail suspension test (mTST).
In order to further characterize the role played by 5-HT and DA-ergic neurotransmission in the antidepressant-like effects of compound (I), the potential involvement of 5-HT1A and D1 receptors was investigated in the mFST.

[4] = system: C57 mice; assay: Mouse tail suspension test (mTST); type: in vivo; conditions: i.p. 30 min
Method: C57 males, 25-28 g, Taconic, 16/8-06. Mice acclimatized to ground floor 5 days before testing. Mice saline injected once a day twice before test day. 22° C., N=7-8.

[5] = system: mice; assay: Mouse zero maze (mZM); type: in vivo; conditions: mZero maze, p.o., 7 days OD
Method: Mice were treated (peroral administration) for 7 days with either, vehicle, duloxetine (10 mg/kg), and compound I (0.1 mg/kg, 1 mg/kg, and 3 mg/kg) (n=8 in each group).
(§2) Compound (I) was tested in three widely used behavioural screens for predicting anxiolytic effects in the clinic: the mouse marble burying test (mMB), mouse zero maze (mZM) and mouse stress-induced hyperthermia test (mSIH).

[6] = system: NMRI mice; assay: Mouse stress-induced hyperthermia test (mSIH); type: in vivo; conditions: mSIH, p.o., −60 min
Method: FIG. 14: Stress-induced hyperthermia. When mice are confronted with a stress-full event, the body temperature rises.
as §2

[7] = system: NMRI mice; assay: Mouse marble burying test (mMB); type: in vivo; conditions: Marble burying, p.o., −60 min
Method: FIG. 13: Marble burying. In the marble-burying test mice exposed to a novel object (marbles) bury them in the sawdust floor covering. Compounds showing anxiolytic-like activity decrease the number of buried marbles at non-sedative doses. […] The number of marbles covered by sawdust was counted at the end of a 60-min session.
as §2

[8] = target: T1, dopamine transporter (DAT) (Mus musculus, UniProt Q61327); assay: MPTP model of DAT inhibition (striatal dopamine depletion); type: in vivo, C57 mouse; parameters: Dopamine Mean ± SEM / DOPAC Mean ± SEM / HVA Mean ± SEM: unit not given here; conditions: MPTP 25 mg/kg s.c. alone
T1 construct: in vivo DAT transporter occupancy (open bars) in mouse striatum; from tissue; host or cells: mouse striatum (in vivo; C57 mice in the MPTP model)
T1 sequence (Q61327 whole entry): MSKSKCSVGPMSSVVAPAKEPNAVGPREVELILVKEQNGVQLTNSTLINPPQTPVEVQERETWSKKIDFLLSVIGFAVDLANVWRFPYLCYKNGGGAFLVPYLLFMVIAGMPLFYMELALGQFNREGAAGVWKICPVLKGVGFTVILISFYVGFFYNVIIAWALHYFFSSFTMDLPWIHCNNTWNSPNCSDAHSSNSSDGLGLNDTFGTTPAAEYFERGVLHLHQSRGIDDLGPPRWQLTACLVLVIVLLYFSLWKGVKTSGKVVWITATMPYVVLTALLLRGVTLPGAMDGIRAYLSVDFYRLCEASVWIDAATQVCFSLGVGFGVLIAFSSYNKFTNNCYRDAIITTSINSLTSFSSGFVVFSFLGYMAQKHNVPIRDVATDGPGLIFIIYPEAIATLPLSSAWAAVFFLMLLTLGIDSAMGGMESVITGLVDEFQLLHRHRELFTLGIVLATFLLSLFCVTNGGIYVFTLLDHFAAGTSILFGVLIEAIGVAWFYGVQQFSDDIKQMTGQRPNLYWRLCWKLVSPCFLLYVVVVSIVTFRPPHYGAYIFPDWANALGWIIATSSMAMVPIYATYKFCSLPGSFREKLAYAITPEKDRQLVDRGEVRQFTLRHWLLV
From the text: In this model compound (I) induced protection against the dopamine depletion induced by the entry of the MPTP metabolite MPP+ into the dopamine terminals of the mouse C57 striatal tissue.

**Q.** Which MED [1] does the source give for `CN(C)CCCC1(c2ccc(F)cc2)OCc2cc(C#N)ccc21` (stereo not drawn) [Citalopram, reference compound] here?
**A.** Its MED is over 60 mg/kg.

**Q.** And the MED [2]?
**A.** The MED was 10 mg/kg.

**Q.** And the MED [3]?
**A.** Its MED is 10 mg/kg.

**Q.** What about the MED [4] of the same molecule?
**A.** The MED was under 5 mg/kg.

**Q.** What does the source list for `CNCC[C@H](Oc1cccc2ccccc12)c1cccs1` [Duloxetine, reference compound]?
**A.** MED [5]: <10 mg/kg; MED [6]: >30 mg/kg; Effect on locomotor activity ([1]; p.o.): without effect; MED [1]: >60 mg/kg; MED [2]: 10 mg/kg; MED [3]: 30 mg/kg; MED [7]: 10 mg/kg; MED [4]: 10 mg/kg

**Q.** `CN1CC=C(c2ccccc2)CC1` [MPTP, reference compound] was tested. Which “DOPAC Mean ± SEM” value [8] did it give?
**A.** Its value is 1 ± 0.2.

**Q.** What about the “HVA Mean ± SEM” value [8] of the same molecule?
**A.** Its value is 0.7 ± 0.1.

**Q.** And the “Dopamine Mean ± SEM” value ([8]; mouse striatal tissue)?
**A.** The value was 4.2 ± 0.6.
